Measured values from PubChem BioAssay AID1208 (EPA DSSTox, 2008).
The source made the active and inactive calls.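 How the source made its calls: active means at least one rat sex group has a carcinogenic potency value and tumor site recorded; inconclusive means only rat studies were judged inadequate by the national testing program; inactive means no potency or tumor site, with negative rat experiments.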

System: rat chronic carcinogenicity bioassay, TD50
Test: DSSTox (CPDBAS) Carcinogenic Potency Database Summary Rat Bioassay Results
Conditions: for Potency: stronger effect = lower value; for outcome: TD50_Rat_Note: no positive results
How it was run: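 Chronic long-term rat cancer bioassays from literature and NCI/NTP, taking the most positive result per sex. TD50 in mmol converted to a 1–100 Activity Score from log10(1/TD50). Mixtures lacking TD50 scored 50.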

[1] = TargetSites_Rat_Female: no positive results
[2] = TD50_Rat_Note: TD50 is harmonic mean of more than one positive test, TargetSites_Rat_Female: stomach
[3] = TD50_Rat_Note: TD50 is harmonic mean of more than one positive test, TargetSites_Rat_Female: liver
[4] = TargetSites_Rat_BothSexes: no positive results

N=C1C=CC(=C(c2ccc(N)cc2)c2ccc(N)cc2)C=C1
Potency (TD50_Rat_Note: TD50 is harmonic mean of more than one positive test, TargetSites_Rat_Female: ear Zymbals gland, subcutaneous tissue, thyroid gland): 39.4 mg/kg/day

CCN(Cc1cccc(S(=O)(=O)O)c1)c1ccc(C(=C2C=CC(=[N+](CC)Cc3cccc(S(=O)(=O)[O-])c3)C=C2)c2ccc(S(=O)(=O)O)cc2)cc1
Potency (TargetSites_Rat_BothSexes: hematopoietic system): 5640 mg/kg/day

CN(N=O)C(=O)N[C@@H]1[C@@H](O)[C@H](O)[C@@H](CO)O[C@@H]1O
Potency (TD50_Rat_Note: positive test results only by intraperitoneal or intravenous injection, TD50 is harmonic mean of more than one positive, TargetSites_Rat_Female: kidney): 0.963 mg/kg/day

CN(N=O)c1ccccn1
Potency (TargetSites_Rat_Female: esophagus): 0.214 mg/kg/day

C/C(=C(\CCOC(=O)c1ccccc1)SC(=O)c1ccccc1)N(C=O)Cc1cnc(C)nc1N
outcome [1]: inactive; no positive results

CCCCCCOc1cc(C)c(O)c(C)c1C
outcome [1]: inactive

Oc1ccccc1
outcome [1]: inactive; no positive results

O=C(Nc1cccc2c(=O)cc(-c3nn[nH]n3)oc12)c1ccc(OCCCCc2ccccc2)cc1
outcome [1]: inactive; no positive results

Oc1cccc2cccnc12
outcome [1]: inactive; no positive results

C=CC1=C(C)C2=CC3=NC(=C(CC(=O)[O-])C4=NC(=C(C)C4=C([O-])[O-])C=c4[n-]c(c(C)c4CC)=CC1=N2)[C@@H](CCC(=O)[O-])[C@@H]3C.[Cu+2].[Na+].[Na+].[Na+]
outcome [1]: inactive; no positive results

CC(C)(C)NCC(O)c1cc(O)cc(O)c1 (configuration not stated)
Potency (TargetSites_Rat_Female: mesovarium): 410 mg/kg/day

CN(C)NC(=O)CCC(=O)O
Potency (TD50_Rat_Note: no positive results are statistically significant, TargetSites_Rat_Female: uterus): 2500 mg/kg/day

CCCCCN(N=O)C(N)=O
Potency (TD50_Rat_Note: TD50 is harmonic mean of more than one positive test, TargetSites_Rat_Female: hematopoietic system, lung, mammary gland, stomach, uterus): 0.555 mg/kg/day

NC(=O)N(CCCO)N=O
Potency [2]: 0.978 mg/kg/day

O=C(O)c1ccccc1-c1c2cc(I)c(=O)c(I)c-2oc2c(I)c(O)c(I)cc12
outcome [1]: inactive; no positive results

CCCCCCCC(=O)OCC(COC(=O)CCCCCCC)OC(=O)CCCCCCC
Potency: 5490 mg/kg/day

C=CCO
outcome [1]: inactive; no positive results

C[C@@H]1Cc2c(Cl)cc(C(=O)N[C@@H](Cc3ccccc3)C(=O)O)c(O)c2C(=O)O1
Potency (TD50_Rat_Note: TD50 is harmonic mean of more than one positive test, TargetSites_Rat_Female: kidney, mammary gland): 0.136 mg/kg/day

CCCCCCCCCCCN(C)N=O
Potency: 2.37 mg/kg/day

Nc1cc(Cl)c(N)c(Cl)c1
outcome [1]: inactive; no positive results

Nc1ccc(-c2ccc(N)c(Cl)c2)cc1Cl
Potency (TD50_Rat_Note: TD50 is harmonic mean of more than one positive test, TargetSites_Rat_Female: mammary gland): 28.1 mg/kg/day

COc1ccc(N)cc1
outcome [1]: inactive; no positive results

Cc1csc(NNC=O)n1
Potency (TargetSites_Rat_Female: mammary gland): 14.4 mg/kg/day

C=CCN(CCO)N=O
Potency (TargetSites_Rat_Female: liver, nasal cavity): 0.491 mg/kg/day

O=S1(=O)CCCO1
Potency (TD50_Rat_Note: TD50 is harmonic mean of more than one positive test, TargetSites_Rat_Female: hematopoietic system, mammary gland, nervous system, small intestine): 3.84 mg/kg/day

C/C=C/c1ccc(OC)cc1
outcome [1]: inactive; no positive results

Cc1cccc2cccnc12
outcome [1]: inactive; no positive results

NC(=S)C(N)=S
outcome [1]: inactive

CCN=c1cc2oc3cc(NCC)c(C)cc3c(-c3ccccc3C(=O)OCC)c-2cc1C
outcome [1]: inactive; no positive results

NCCCCCCCCCCC(=O)O
Potency [1]: 1100 mg/kg/day

CC(C)NCC(O)c1ccc(NS(C)(=O)=O)cc1 (configuration not stated)
outcome [1]: inactive; no positive results

O=[N+]([O-])c1ccc(Cl)c([N+](=O)[O-])c1
outcome: inactive; no positive results

N/C(=N\O)c1ccc([N+](=O)[O-])o1
outcome [1]: inactive

CCCC(Cl)CCC(Cl)CCC(Cl)CCC(Cl)CCC(Cl)CCC(Cl)CCC(C)Cl (configuration not stated)
outcome [1]: inactive; no positive results

[Na+]
outcome: inactive; no positive results

N#Cc1ccc(C2CCCc3cncn32)cc1 (configuration not stated)
outcome [1]: inactive; no positive results

Oc1c(Cl)c(Cl)c(Cl)c(Cl)c1Cl
outcome [1]: inactive; no positive results
Potency (TargetSites_Rat_Female: liver): 13.1 mg/kg/day
Potency [1]: 59 mg/kg/day

CC(=O)Nc1ccc(O)cc1
Potency (TD50_Rat_Note: TD50 is harmonic mean of more than one positive test, TargetSites_Rat_Female: liver, urinary bladder): 495 mg/kg/day

O=NN1CC=CCO1
Potency (TargetSites_Rat_BothSexes: all tumor bearing animals): 90.6 mg/kg/day

Nc1cnn([C@@H]2O[C@H](CO)[C@@H](O)[C@H]2O)c(=O)n1
outcome: inactive; no positive results

O=Nc1ccc(Nc2ccccc2)cc1
Potency [1]: 201 mg/kg/day

CCn1cc(C(=O)O)c(=O)c2cc3c(cc21)OCO3
Potency [1]: 167 mg/kg/day

Cc1cc(-c2ccc(N)c(C)c2)ccc1N
Potency (TD50_Rat_Note: TD50 is harmonic mean of more than one positive test, TargetSites_Rat_Female: clitoral gland, ear Zymbals gland, large intestine, liver, lung, mammary gland, oral cavity, skin, small intestine): 0.629 mg/kg/day

CNC(=O)CSP(=S)(OC)OC
outcome [1]: inactive; no positive results

O=C(O)C(Cl)Cl
Potency (TD50_Rat_Note: TD50 is harmonic mean of more than one positive test): 161 mg/kg/day

C=CCN(CC=C)N=O
Potency (TD50_Rat_Note: TD50 is harmonic mean of more than one positive test, TargetSites_Rat_Female: nasal cavity): 33.9 mg/kg/day

S=P(N1CC1)(N1CC1)N1CC1
Potency (TD50_Rat_Note: positive test results only by intraperitoneal or intravenous injection, TD50 is harmonic mean of more than one positive, TargetSites_Rat_Female: ear Zymbals gland): 0.164 mg/kg/day

O=NN1CCOCC1
Potency (TD50_Rat_Note: TD50 is harmonic mean of more than one positive test, TargetSites_Rat_Female: liver, vascular system): 0.109 mg/kg/day

O=C/C=C/O
Potency (TD50_Rat_Note: TD50 is harmonic mean of more than one positive test, TargetSites_Rat_Female: thyroid gland): 122 mg/kg/day

COC(N)=O
Potency (TD50_Rat_Note: TD50 is harmonic mean of more than one positive test, greater than ten-fold variation among TD50 values for positive res, TargetSites_Rat_Female: liver): 56.6 mg/kg/day

O=CCCCC=O
outcome [1]: inactive; no positive results

C/C=C/C=O
Potency: 4.2 mg/kg/day

Clc1ccc(C(c2ccc(Cl)cc2)C(Cl)(Cl)Cl)cc1
Potency [3]: 84.7 mg/kg/day

ClC1C(Cl)C(Cl)C(Cl)C(Cl)C1Cl (configuration not stated)
outcome [1]: inactive; no positive results
Potency: 11.2 mg/kg/day

CN(C)CCN(Cc1cccs1)c1ccccn1
Potency [3]: 9.13 mg/kg/day

CCCN=[N+]([O-])CCC
Potency (TD50_Rat_Note: harmonic mean of TD50 includes a value for upper 99% confidence limit from study with 100% tumor incidence but no lifeta): 0.000241 mg/kg/day

C[C@@H]1C[C@H](C)CN(S(=O)(=O)c2ccc(Cl)c(C(=O)O)c2)C1
Potency: 4.85 mg/kg/day

CCOC(=O)N(CC)N=O
Potency (TD50_Rat_Note: TD50 is harmonic mean of more than one positive test, TargetSites_Rat_Female: esophagus, oral cavity, small intestine, stomach): 0.0904 mg/kg/day

CCN(CC(F)(F)F)N=O
Potency: 2.52 mg/kg/day

O=C1CCO1
Potency [2]: 1.46 mg/kg/day

c1ccccc1
Potency (TD50_Rat_Note: TD50 is harmonic mean of more than one positive test, TargetSites_Rat_Female: ear Zymbals gland, nasal cavity, oral cavity, stomach, vascular system): 169 mg/kg/day

COc1ccc(N)c(OC)c1
outcome [1]: inactive; no positive results

ClCc1ccccn1
outcome [1]: inactive; no positive results

CN(C)[C@@H]1C(=O)C(C(N)=O)=C(O)[C@@]2(O)C(=O)C3=C(O)c4c(O)cccc4[C@@](C)(O)[C@H]3[C@H](O)[C@@H]12
outcome [1]: inactive; no positive results

S=[Se]
Potency [3]: 8.01 mg/kg/day

CC(=O)N(C(C)=O)c1cccc2c1Cc1ccccc1-2
Potency (TargetSites_Rat_Female: ear Zymbals gland, mammary gland): 19 mg/kg/day

Cc1cc(Cc2ccc(N)c(C)c2)ccc1N
Potency [3]: 7.38 mg/kg/day

COP(=O)(OC)C(O)C(Cl)(Cl)Cl (configuration not stated)
outcome [4]: inactive

O.O.O.O.O.O.O.O.O=S(=O)([O-])[O-].O=S(=O)([O-])[O-].O=S(=O)([O-])[O-].[Cd+2].[Cd+2].[Cd+2]
outcome: inactive; no positive results

CC[N+]([O-])=NC
Potency: 0.0189 mg/kg/day

CN(N=O)c1ccc(/C=C/c2ccnc3ccccc23)cc1
Potency [3]: 0.699 mg/kg/day

NCC(=O)O
Potency (TargetSites_Rat_Female: kidney): 25700 mg/kg/day

CCc1ccccc1
Potency (TD50_Rat_Note: TD50 is harmonic mean of more than one positive test, greater than ten-fold variation among TD50 values for positive res, TargetSites_Rat_Female: Maltoni head cancers, kidney): 72.6 mg/kg/day

CCCCOC(=O)c1ccccc1C(=O)OCc1ccccc1
Potency (TargetSites_Rat_Female: no positive results- CPDB evaluation based on NCI Technical Report): 1040 mg/kg/day

CNC(=O)O/N=C(\SC)C(=O)N(C)C
outcome [1]: inactive; no positive results

Nc1ccc(Cc2ccc(N)c(Cl)c2)cc1Cl
Potency (TD50_Rat_Note: TD50 is harmonic mean of more than one positive test, TargetSites_Rat_Female: liver, lung, mammary gland): 19.3 mg/kg/day
outcome: inactive; no positive results

CN(N=O)C(=O)c1ccccc1C(=O)N(C)N=O
outcome: inactive; no positive results

NCC1(CC(=O)O)CCCCC1
Potency [1]: 5850 mg/kg/day

C=Cc1cccc(C)c1
outcome [1]: inactive; no positive results

CCN(Cc1cccc(S(=O)(=O)O)c1)c1ccc(C(=C2C=CC(=[N+](CC)Cc3cccc(S(=O)(=O)O)c3)C=C2)c2ccccc2S(=O)(=O)[O-])cc1
outcome [4]: inactive

CC(=O)CN(C)N=O
Potency (TD50_Rat_Note: TD50 is harmonic mean of more than one positive test, TargetSites_Rat_Female: esophagus, liver, nasal cavity, oral cavity): 0.0172 mg/kg/day

CC(=O)CN(N=O)C(N)=O
outcome [1]: inactive; no positive results

C1OC1C1CO1 (configuration not stated)
outcome [1]: inactive

CCC(Cl)CCC(Cl)C(Cl)CC(Cl)C(Cl)C(Cl)CCl (configuration not stated)
Potency (TD50_Rat_Note: TD50 is harmonic mean of more than one positive test, TD50_Rat_mmol was not calculated for this mixture, but Activiity S, TargetSites_Rat_Female: liver, thyroid gland): 222 mg/kg/day

CC(=O)Oc1ccccc1C(=O)O
outcome [4]: inactive; no positive results

COP(=S)(OC)SCn1nnc2ccccc2c1=O
outcome [1]: inactive; no positive results

Nc1ccc(-c2ccc(N)c(N)c2)cc1N
Potency: 395 mg/kg/day

O.[Cd+2].[Cl-].[Cl-]
outcome [1]: inactive; no positive results
